Measured values taken from patent US20100292316A1, “IMPROVED THERAPEUTIC METHODS AND COMPOSITIONS COMPRISING CHROMAN RING COMPOUNDS” (Research Development Foundation, priority 2007, published 2010).

Columns and labels:
Type in all cases: cell-based, human
[1] = tested on: PARP; experiment: PARP cleavage (p84) by Western blot, densitometry
Procedure: Whole-cell protein extracts were prepared as described previously (Yu et al., 1999), and 50 μg of protein was loaded per lane, separated using SDS-PAGE on a 10-15% gel under reducing conditions, and electroblotted onto a nitrocellulose membrane ([…] Optitran BA-S-supported nitrocellulose; Schleicher and Schuell, Keene, N.H.). Equal loading was verified using GAPDH antibody. Primary rabbit antibodies with specificity for PARP and primary goat antibody with specificity for Arg were purchased from Santa Cruz Biotechnology (Santa Cruz, Calif.). Horseradish peroxidase conjugated goat anti-rabbit or horseradish goat anti-mouse secondary antibody was purchased from Jackson Immunoresearch Laboratory (West Grove, Pa.). Horseradish peroxidase-conjugated donkey anti-goat serum was purchased from Santa Cruz Biotechnology. Immune complexes were visualized using enhanced chemiluminescence detection (Pierce Chemical Co., Rockford, Ill.). Fold differences in level of chemiluminescence were determined by densitometric analyses.
Primary mouse antibody specific for p73 was purchased from IMGENEX (San Diego, Calif.). Primary mouse antibody specific for caspase 8 was purchased from Cell Signaling Technology (Beverly, Mass.). Horseradish peroxidase conjugated goat anti-rabbit or goat anti-mouse secondary antibodies were purchased from Jackson Immunoresearch Laboratory (West Grove, Pa.). Horseradish peroxidase-conjugated donkey […] serum was purchased from Santa Cruz Biotechnology. Immune complexes were visualized using enhanced chemiluminescence detection (Pierce Chemical Co., Rockford, Ill.). Fold differences in level of chemiluminescence were determined by densitometric analyses.

[2] = tested on: c-Jun; experiment: c-Jun phosphorylation (JNK substrate) by Western blot
Procedure: Similar results were also observed in α-TEA treated MCF-7 cells in the presence of JNK inhibitor II (7.5 μM of JNK inhibitor II (Calbiochem-Novabiochem Corp. San Diego, Calif.) vs. DMSO control). Specifically, 68% reduction in the level of phosphorylated c-Jun (FIG. 11B, top panel), almost 100% reduction in NOXA expression (FIG. 11B, second panel), and 29% reduction in the level of PARP cleavage (FIG. 11B, third panel).
JNK siRNA was used to determine if JNK was involved in α-TEA regulation of NOXA expression. MDA-MB-435 and MCF-7 cells were transiently transfected with siRNA specific for JNK1/2 (JNK1/2 sense (5′-AAA GAA UGU CCU ACC UUC Utt-3′), JNK1/2 antisense (5′AGA AGG UAG GAC AUU CUU Utt-3′)). The cells were then treated with α-TEA for 15 h, or 20 h, respectively. […] Likewise in MCF-7 cells JNK siRNA blocked JNK1 phosphorylation by 26% (FIG. 11D, first panel), blocked c-Jun phosphorylation by 36% (FIG. 1D, second panel), reduced protein levels of full length p73 by 66% (FIG. 1D, third panel), reduced protein levels of NOXA by 14% (FIG. 1D, fourth panel), and reduced level of PARP cleavage by 44% (FIG. 11D, fifth panel). Anti-p73 antibodies used in the foregoing experiment were purchases from IMGENEX (San Diego, Calif.).

[3] = tested on: NOXA; experiment: NOXA mRNA (RT-PCR) and protein (Western blot) levels
[4] = tested on: Akt; experiment: Western blot of phosphorylated Akt (Ser 473) and total Akt in prostate cancer cells
Source text: Previous studies have shown that α-TEA is an effective inducer of apoptosis in human prostate cancer cells (Anderson et al., 2004). Dose- and time-dependent pro-apoptotic effects of α-TEA in prostate cancer cells are mediated by Fas/FADD/caspase-8/tBid and Fas/Daxx/Ask1/JNK1/2/Bax, leading to activation of caspases-9 and -3. Thus, the Akt inhibiting activity of α-TEA was investigated in prostate cancer cells. Since phosphorylation of Akt at Ser 473 is required for its full activation (Cheng et al., 2005), we examined the phosphorylation status of Akt using an antibody that specifically recognizes Akt phosphorylated at Ser 473 in all three Akt isoforms (Upstate Cell Signaling Solutions (Charlottesville, Va.)). α-TEA decreased the levels of the phosphorylated forms of Akt. […] As verification that the decreases in phosphorylation status of Akt correlated with decreased kinase activity, the phosphorylation status of GSK3β, a downstream Akt target, was evaluated following α-TEA treatments. […] GAPDH levels were assayed with each immunoblot assay as a protein loading control.
Since Akt has three isoforms; namely, Akt1, Akt2, and Akt3, it was of interest to determine if α-TEA treatment was reducing the phosphorylated status of all three isoforms. Following α-TEA treatment the three Akt isoforms were immunoprecipitated with isoform specific antibodies, followed by western immunoblotting analyses using antibody specific for phospho-Akt. The protein levels of the isoforms were also determined. […] Treatment diminished the phosphorylation levels in all three Akt isoforms in both LNCaP and PC-3-GFP cells.
1×10^7 LNCaP or PC-3 3-GFP cells were treated with α-TEA and lysed in RIPA lysis buffer in the presence of protease inhibitors. […] Beads were washed 4 times with PBS and the proteins were released from the beads by boiling in Laemmli buffer for 5 min. Immunoprecipitated proteins were identified by SDS-PAGE followed by western immunoblot analyses.
Since Akt is activated, at least in part, by PI3K, we were interested to see if blockage of PI3K activity using the PI3K inhibitor LY294002 (Calbiochem-Novabiochem Corp. (San Diego, Calif.)) (Vlahos et al., 1994) would augment the apoptotic response induced by α-TEA.

[5] = tested on: LNCaP cells; experiment: Apoptosis by DAPI staining, LNCaP
Procedure: Cells were plated at 2×10^6 in 100 mm cell culture plates, cultured overnight and washed with serum free media before transfection. Plasmids (0.7 μg or 4.2 of μg) or empty vector (pcDNA3) were mixed with 50 μl or 300 μl serum free media and 4 μl or 24 μl PLUS reagent (Invitrogen, CA) and incubated for 15 min at room temperature. Next 2 μl or 12 μl of Lipofectamine reagent (Invitrogen, CA) in 50 μl or 300 μl serum free media were added and the mixture incubated for another 15 min before adding to the cells in 0.5 ml or 5 ml serum free media. Cells were incubated with transfection reagents for 3 h and the growth media containing 2×FBS was added to the cells. Transfected cells were cultured overnight before α-TEA treatment. Transfection efficiency was determined to be 70% using GFP expressing plasmid.
(§1) Assessment of apoptosis based on nuclear morphology using 4′, 6-diamidino-2-phenylindole dihydrochloride (DAPI; Boehringer Mannheim Corp. Indianapolis, Ind.) has been described previously (Yu et al., 2003; Israel et al., 2000). Briefly, 1.5×10^5/well LNCaP or PC-3-GFP cells were plated in 12-well tissue culture plates and cultured overnight to allow cells to attach. On the next day, cells were treated with various concentrations of α-TEA and incubated for various time periods. At the end of treatments, cells were collected, washed with PBS, stained with 25 μl of 2 μg/ml DAPI, and viewed under a fluorescent microscope (model ICM 405 with a model 487701 filter, Zeiss). Cells which contained clearly condensed chromatin or fragmented nuclei were scored as apoptotic cells. ≧500 cells were counted in each sample. Apoptotic data are presented as percentage of apoptotic cells±S.D. for three independent experiments.
FOXO1 siRNA used in the study was purchased from Santa Cruz (Santa Cruz, Calif.). […] Transfection of human prostate cancer cells with FOXO1 siRNA or negative control siRNA was performed in 100 mm cell culture dishes at a density of 2×10^6 cells/dish using Lipofectamine 2000 (Invitrogen, Carlsbad, Calif.) and 300 pmol of siRNA duplex, resulting in a final siRNA concentration of 30 nM. siRNA transfected cells were incubated for 48-72 h prior to α-TEA treatment.

[6] = tested on: PC-3-GFP cells; experiment: Apoptosis by DAPI staining, PC-3-GFP
Procedure: as §1

[7] = MCF-7 cells, 40 μM α-TEA 20 h, vs DMSO or control siRNA
[8] = MDA-MB-435 cells, 40 μM α-TEA 15 h, vs vehicle or control siRNA

| SMILES | reduction of level of PARP cleavage in α-TEA treated cells [1, 7] [%] | reduction of PARP cleavage (p84 fragment) in α-TEA treated cells ([1]; MDA-MB-435 cells, 40 μM α-TEA 15 h, vs control siRNA or vehicle) [%] | reduction of α-TEA-induced c-Jun phosphorylation [2, 7] [%] | reduction of α-TEA-induced c-Jun phosphorylation [2, 8] [%] | reduction of α-TEA-induced NOXA expression [3, 7] [%] | reduction of α-TEA-induced NOXA expression [3, 8] [%] | inhibition of levels of endogenously phosphorylated Akt ([4]; LNCaP cells, 10 μM α-TEA and/or 10 μM LY294002) [%] | inhibition of levels of endogenously phosphorylated Akt ([4]; PC-3-GFP cells, 20 μM α-TEA and/or 10 μM LY294002) [%] | induction of apoptosis (apoptotic cells) ([5]; 6 μM LY294002, 24 h) [%] | induction of apoptosis (apoptotic cells) ([5]; 12 μM LY294002, 24 h) [%] | induction of apoptosis (apoptotic cells) ([5]; 25 μM LY294002, 24 h) [%] | apoptotic cells ([6]; 25 μM LY294002, 24 h) [%] | apoptotic cells ([6]; 50 μM LY294002, 24 h) |
| --- | --- | --- | --- | --- | --- | --- | --- | --- | --- | --- | --- | --- | --- |
| O=C1c2ccccc2-c2n[nH]c3cccc1c23 [JNK inhibitor II] | 29 | 34 | 68 | 38 | ~100 | 41 |  |  |  |  |  |  |  |
| O=c1cc(N2CCOCC2)oc2c(-c3ccccc3)cccc12 [LY294002, 2-(4-morpholinyl)-8-phenyl-4H-1-benzopyran-4-one, reference compound] |  |  |  |  |  |  | 20 | 60 | 4.9 | 13 | 41 | 6.2 | approximately 15% |
